Results published in patent publication US20180243190A1, “ACTIVATORS OF NRF2-DEPENDENT PHOTOPROTECTION AND RELATED USES THEREOF” (THE ARIZONA BOARD OF REGENTS ON BEHALF OF THE UNIVERSITY OF …, priority 2015, published 2018).

Tests used:
HaCaT keratinocytes = experiment: GSH-Glo glutathione assay; type: cell-based, human; settings: bixin 0-40 μM, 24 h
Protocol: Total intracellular glutathione in cultured cells was analyzed using the luminescent GSH-Glo glutathione assay (Promega). Cells were harvested and then counted using a Z2 Coulter counter, and GSH was determined per 10,000 viable cells. Data represent relative levels of glutathione normalized for cell number (treated versus solvent controls).

KEAP1-C151S = target: T1, KEAP1-C151S (Homo sapiens, UniProt Q14145, C151S); type: cell-based; settings: SF 5 μM, As 5 μM, bixin 40 μM; 16 h
T1 construct: expressed in transfected cells; host or cells: HaCaT human keratinocytes
Description: (§1) Since it has been shown previously that NRF2 activation by canonical inducers (including SF and tBHQ) depends on C (Cys)-151, a critical cysteine residue in KEAP1, the mechanistic involvement of KEAP1-C151 bixin-based NRF2 activation was examined. HaCaT cells were cotransfected with expression vectors for either KEAP1 wild type (KEAP1-WT) or a mutant KEAP1 (KEAP1-C151S; Cys-151 mutated to serine) along with ARE-firefly luciferase and Renilla luciferase reporters to assess NRF2 transcriptional activity (FIG. 3G). After exposure to SF (5 μM), As (sodium arsenite; 5 μM), or bixin (40 μM; all 16 h), NRF2 transcriptional activity was enhanced by all treatments in KEAP1-WT cells, whereas NRF2 activation by SF or bixin was abolished in KEAP1-C151S cells.
(§2) Transfection of cDNA was performed using Lipofectamine 3000 (Invitrogen) according to the manufacturer's instructions. Activation of NRF2 transcriptional activity was performed as previously published. Briefly, HaCaT cells were cotransfected with expression vectors for either KEAP1 wild type (KEAP1-WT) or KEAP1 with a mutation that generates a protein that contains a serine residue instead of a cysteine (KEAP1-C151S), along with NQO1-ARE firefly luciferase and Renilla luciferase reporters. At 24 h post-transfection, cells were left untreated or treated with SF (5 μM), As (5 μM), or bixin (40 μM) for 16 h. The cells were then lysed for analysis of the reporter gene activity using the Promega dual-luciferase reporter gene assay system.

[1] = target: T2, KEAP1 wild type (KEAP1-WT) (Homo sapiens, UniProt Q14145); type: cell-based; settings: SF 5 μM, As 5 μM, bixin 40 μM; 16 h
T2 construct: expressed in transfected cells; host or cells: HaCaT human keratinocytes
Description: as §1, §2

[2] = system: primary human epidermal keratinocytes (HEKs); experiment: Oxidative Stress RT2 Profiler PCR Expression Array analysis; type: cell-based; settings: bixin 20 μM, 24 h
Protocol: Total cellular RNA was prepared according to a standard procedure using the RNeasy kit (Qiagen, Valencia, Calif., USA). Reverse transcription was performed using the RT^2 First Strand kit (SuperArray, Frederick, Md., USA) and 1 μg total RNA. The Human Oxidative Stress RT^2Profiler™ PCR Expression Array (SuperArray) profiling the expression of 84 stress-related genes was employed as described before. Gene-specific product was normalized to ACTB and quantified using the comparative (ΔΔCt) Ct method following the ABI Prism 7000 sequence detection system user guide. Expression values were averaged across three independent array experiments followed by statistical analysis.

SKH-1 mice skin = experiment: Solar UV photodamage model; type: in vivo
Protocol: Next, the feasibility of bixin-induced cutaneous protection was studied in a solar UV photodamage model. Nrf2^+/+ and Nrf2^−/− mice were i.p. injected with either corn oil (carrier control) or bixin (200 mg/kg) 48 h before solar UV exposure (240 mJ/cm^2 UVB; 4.4 J/cm^2 UVA). 24 h after UV exposure back skin tissue was then collected followed by immunohistochemical (IHC) analysis. […] Moreover, UV exposure alone activated the NRF2 response in murine skin, effects not detectable in Nrf2^−/− mice (FIG. 5).
Irradiation with solar UV occurred as described before. A KW large area light source solar simulator, model 91293, from Oriel Corporation (Stratford, Conn.) was used, equipped with a 1000 W Xenon arc lamp power supply, model 68920, and a VIS-IR bandpass blocking filter combined with an atmospheric attenuation filter (output 290-400 nm plus residual 650-800 nm). At 345 mm from the source, the UV dose was 4.4 J/cm^2 UVA+240 mJ/cm^2 UVB radiation.
Nrf2^+/+ and Nrf2^−/− SKH-I mice were obtained by breeding Nrf2 heterozygous mice generated by back-crossing Nrf2^−/− C57BL/6 mice onto the SKH-1 hairless mouse genetic background for at least six generations (JAX® Mice, The Jackson Laboratory). All animals received water and food ad libitum and were handled according to the Guide for the Care and Use of Laboratory Animals; the protocols were approved by the University of Arizona Institutional Animal Care and Use Committee. Eight-week-old Nrf2^+/+ and Nrf2^−/− mice were randomly allocated into four groups (n=6): (i) control (corn oil); (ii) bixin (200 mg/kg, dissolved in corn oil); (iii) UV; (iv) bixin+UV. Bixin was administered through intraperitoneal (i.p.) injection 48 h before UV exposure.
24 h after UV exposure, the mice were euthanized and back skin was collected and divided into two parts: one part was frozen in liquid nitrogen for total RNA extraction and protein analysis; the other part was fixed in 10% buffered formalin and embedded in paraffin for histological and immunohistochemical analyses. Tissue sections (4 μm) were baked and deparaffinized. Hematoxylin and eosin (H&E) staining was performed for pathological examination. Antigen retrieval was carried out by boiling the slides with retrieval solution (citric acid monohydrate 2.1 g/L in H2O pH=6.0) three times for 5 min [43]. Tissue sections were then exposed to 3.5 M HCl for 15 min at room temperature and washed with PBS. Subsequently, tissue sections were treated with 0.3% […] to quench endogenous peroxidase activity. Tissue sections were incubated with 5% normal goat serum for 30 min followed by 2 h incubation with primary antibodies at 1:100 dilution at room temperature. Staining was performed using the EnVision+System-HRP (DAB) kit (Dako) according to the manufacturer's instructions.
An in situ cell death detection kit (Roche) was used for detection of apoptotic cell death in skin sections according to the manufacturer's instructions. Briefly, tissue sections were pretreated with proteinase K (20 μg/ml) in 10 mM Tris/HCl (pH 7.8) at 37° C. for 30 min. After washing three times with PBS, tissue sections were incubated with TUNEL reaction mixture for 1 h at 37° C. in the dark. Tissue sections were then stained with Hoechst, and analyzed using a fluorescence microscope (Zeiss Observer.Zi microscope; slidebook computer program; excitation wavelength: 450-500 nm; detection wavelength: 515-565 nm). Hoechst stain was visualized under UV light.

[3] = 200 mg/kg i.p. 48 h before solar UV, effect confined to Nrf2+/+ mice

T1 sequence (Q14145 whole entry C151S): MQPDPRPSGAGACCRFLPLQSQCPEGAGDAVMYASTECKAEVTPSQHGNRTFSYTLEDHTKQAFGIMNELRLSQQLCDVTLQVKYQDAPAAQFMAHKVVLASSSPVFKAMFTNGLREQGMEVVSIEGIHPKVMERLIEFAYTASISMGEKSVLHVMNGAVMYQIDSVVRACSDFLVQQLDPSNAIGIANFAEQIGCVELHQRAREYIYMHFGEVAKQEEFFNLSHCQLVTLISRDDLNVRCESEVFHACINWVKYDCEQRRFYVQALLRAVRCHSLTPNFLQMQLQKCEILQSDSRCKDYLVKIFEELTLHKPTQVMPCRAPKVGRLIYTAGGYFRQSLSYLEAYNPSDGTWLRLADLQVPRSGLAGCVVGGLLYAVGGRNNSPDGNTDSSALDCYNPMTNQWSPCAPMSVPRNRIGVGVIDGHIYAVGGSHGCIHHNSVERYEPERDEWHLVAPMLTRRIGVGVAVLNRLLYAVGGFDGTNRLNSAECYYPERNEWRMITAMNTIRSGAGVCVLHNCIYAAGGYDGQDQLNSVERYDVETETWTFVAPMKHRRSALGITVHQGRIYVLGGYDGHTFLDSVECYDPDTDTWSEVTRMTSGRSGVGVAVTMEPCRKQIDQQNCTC
T2 sequence (Q14145 whole entry, species assumed): as the sequence (Q14145 whole entry C151S) above, with S151C counted along it

COC(=O)/C=C/C(C)=C\C=C\C(C)=C\C=C\C=C(C)\C=C\C=C(C)\C=C\C(=O)O [bixin]
increase of total cellular glutathione (HaCaT keratinocytes): ~50%
NRF2 activation in KEAP1-C151S cells (KEAP1-C151S): abolished
NRF2 transcriptional activity in KEAP1-WT cells [1]: enhanced
expression of NRF2 target genes (AKR1C2, GCLC, NQO1, SLC7A11, FTH1, TXNRD1, NCF2, SRXN) [2]: Pronounced upregulation
UV-induced apoptosis (TUNEL-positive cells) (SKH-1 mice skin; [3]): suppressed
UV-induced epidermal thickening (SKH-1 mice skin; [3]): suppressed
cyclobutane pyrimidine dimer (CPD)-lesions (SKH-1 mice skin; Nrf2+/+ and Nrf2−/− mice, 200 mg/kg i.p.): not antagonized
UV-induced epidermal expression of MMP9 (IHC) (SKH-1 mice skin; Nrf2+/+ mice only, 200 mg/kg i.p.): significantly antagonized
UV-elicited keratinocyte hyperproliferation (Ki67 IHC) (SKH-1 mice skin; Nrf2+/+ mice, 200 mg/kg i.p.): suppression
UV-enhanced 8-oxo-dG staining (IHC) (SKH-1 mice skin; Nrf2+/+ mice, 200 mg/kg i.p.): suppressed
UV-induced p-p65 accumulation in the skin (SKH-1 mice skin; Nrf2+/+ mice, 200 mg/kg i.p.): decreased
UV-enhanced 8-oxo-dG staining (IHC) (SKH-1 mice skin; Nrf2−/− mice, 200 mg/kg i.p.): not Nrf2^−/− mice
UV-induced p-p65 accumulation in the skin (SKH-1 mice skin; Nrf2−/− mice, 200 mg/kg i.p.): minimal effects
UV-induced NF-κB target gene expression (IL6, TNFα, MMP9) at the mRNA level (SKH-1 mice skin; observed only in Nrf2+/+ mice, 200 mg/kg i.p.): attenuation
